US5238825A, “Preparation and use of a cyclodextrinase for preparing maltooligosaccharides” (Kikkoman Corporation, priority 1989, dated 1993)
Like-named read-outs stand apart in the source and are kept apart here.

Columns and labels:
[1] = target: T1, cyclodextrinase (Lysinibacillus sphaericus, UniProt Q08341); assay: Influence of metal ions on the activity of the present enzyme; assay type: biochemical, Bacillus sphaericus; details: for Residual activity: ions added, final conc. 1 mM, none = 100
T1 construct: is cultured in a medium to yield and accumulate said cyclodextrinase, and this enzyme is collected from the culture; made in house; host or cells: Bacillus sphaericus E-244 (FERM BP-2458), the natural wild-type producer strain; not recombinant
T1 sequence (Q08341 1-591): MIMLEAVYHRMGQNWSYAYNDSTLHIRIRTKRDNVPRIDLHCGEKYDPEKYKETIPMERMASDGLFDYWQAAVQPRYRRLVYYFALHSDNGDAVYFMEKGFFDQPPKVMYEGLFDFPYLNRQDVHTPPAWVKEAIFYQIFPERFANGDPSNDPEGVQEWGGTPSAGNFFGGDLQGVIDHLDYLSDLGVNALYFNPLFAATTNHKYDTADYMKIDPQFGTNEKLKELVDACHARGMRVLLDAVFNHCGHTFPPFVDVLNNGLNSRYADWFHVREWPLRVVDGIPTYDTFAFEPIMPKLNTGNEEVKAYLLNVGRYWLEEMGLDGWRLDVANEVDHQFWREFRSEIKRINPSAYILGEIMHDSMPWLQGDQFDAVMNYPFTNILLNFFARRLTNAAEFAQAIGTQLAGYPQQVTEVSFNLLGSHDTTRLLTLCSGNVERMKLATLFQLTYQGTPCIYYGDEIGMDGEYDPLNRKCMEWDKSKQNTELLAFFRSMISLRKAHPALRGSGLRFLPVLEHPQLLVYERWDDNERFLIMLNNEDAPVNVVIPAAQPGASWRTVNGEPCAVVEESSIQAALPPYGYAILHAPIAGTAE
Description: (§1) When the amount of the enzyme was small, the reducing power of the enzyme was determined according to Nelson-Somogyi's method, with glucose as standard.

[2] = target: T1, cyclodextrinase; assay: Substrate specificity of the present cyclodextrinase (relative hydrolysis rate); assay type: biochemical, Bacillus sphaericus
Description: as §1

[3] = target: T1, cyclodextrinase; assay: Reaction rate parameters of the present enzyme for cyclodextrins and maltooligosaccharides; assay type: biochemical, Bacillus sphaericus; set-up: Vmax: unit not given here; details: for Relative value: Vmax/Km relative to β-cyclodextrin = 1.00
Description: as §1

[4] = test system: cyclodextrinase; details: Bacillus coagulans enzyme, prior literature; cited from earlier work
[5] = test system: cyclodextrinase; details: Bacillus macerans enzyme, prior literature; cited from earlier work
[6] = substrate conc. 2 mM, β-cyclodextrin = 100
[7] = substrate conc. 0.1%, β-cyclodextrin (2 mM) = 100

Compound | Residual activity [1] [%] | Vmax [3] | Relative value [3] | further results
[Ca+2] [Ca^2+] | 138.2 |  |  | activation of the enzyme by metal ion [1]: 10-30%
[Cu+2] [Cu^2+] | 2.8 |  |  | 
[Fe+3] [Fe^3+] | 41.6 |  |  | Residual activity ([1]; listed as Fe^2+): 4.6%
[Hg+2] [Hg^2+] | 0.0 |  |  | 
OC[C@H]1O[C@H](O[C@H]2[C@H](O)[C@@H](O)[C@@H](O[C@H]3[C@H](O)[C@@H](O)[C@@H](O[C@H]4[C@H](O)[C@@H](O)[C@@H](O[C@H]5[C@H](O)[C@@H](O)[C@@H](O[C@H]6[C@H](O)[C@@H](O)[C@@H](O[C@H]7[C@H](O)[C@@H](O)C(O)O[C@@H]7CO)O[C@@H]6CO)O[C@@H]5CO)O[C@@H]4CO)O[C@@H]3CO)O[C@@H]2CO)[C@H](O)[C@@H](O)[C@@H]1O (some centres unmarked) [Maltoheptaose] |  | 0.060 | 0.30 | Relative hydrolysis rate [2, 6]: 66%
OC[C@H]1O[C@H](O[C@H]2[C@H](O)[C@@H](O)[C@@H](O[C@H]3[C@H](O)[C@@H](O)[C@@H](O[C@H]4[C@H](O)[C@@H](O)[C@@H](O[C@H]5[C@H](O)[C@@H](O)[C@@H](O[C@H]6[C@H](O)[C@@H](O)C(O)O[C@@H]6CO)O[C@@H]5CO)O[C@@H]4CO)O[C@@H]3CO)O[C@@H]2CO)[C@H](O)[C@@H](O)[C@@H]1O (some centres unmarked) [Maltohexaose] |  | 0.075 | 0.23 | Relative hydrolysis rate [2, 6]: 43%; Km [4]: 1500 µM
OC[C@H]1O[C@H](O[C@H]2[C@H](O)[C@@H](O)[C@@H](O[C@H]3[C@H](O)[C@@H](O)[C@@H](O[C@H]4[C@H](O)[C@@H](O)[C@@H](O[C@H]5[C@H](O)[C@@H](O)C(O)O[C@@H]5CO)O[C@@H]4CO)O[C@@H]3CO)O[C@@H]2CO)[C@H](O)[C@@H](O)[C@@H]1O (some centres unmarked) [Maltopentaose] |  | 0.073 | 0.27 | Relative hydrolysis rate [2, 6]: 49%
OC[C@H]1O[C@H](O[C@H]2[C@H](O)[C@@H](O)[C@@H](O[C@H]3[C@H](O)[C@@H](O)[C@@H](O[C@H]4[C@H](O)[C@@H](O)C(O)O[C@@H]4CO)O[C@@H]3CO)O[C@@H]2CO)[C@H](O)[C@@H](O)[C@@H]1O (some centres unmarked) [Maltotetraose] |  | 0.067 | 0.15 | 
[Mg+2] [Mg^2+] | 111.3 |  |  | activation of the enzyme by metal ion [1]: 10-30%
[Mn+2] [Mn^2+] | 59.3 |  |  | 
[Ni+2] [Ni^2+] | 0.9 |  |  | 
[Zn+2] [Zn^2+] | 0.0 |  |  | 
OC[C@H]1O[C@@H]2O[C@H]3[C@H](O)[C@@H](O)[C@@H](O[C@H]4[C@H](O)[C@@H](O)[C@@H](O[C@H]5[C@H](O)[C@@H](O)[C@@H](O[C@H]6[C@H](O)[C@@H](O)[C@@H](O[C@H]7[C@H](O)[C@@H](O)[C@@H](O[C@H]1[C@H](O)[C@H]2O)O[C@@H]7CO)O[C@@H]6CO)O[C@@H]5CO)O[C@@H]4CO)O[C@@H]3CO [α-cyclodextrin] |  | 0.074 | 0.36 | Relative hydrolysis rate [2, 6]: 44%; Km [5]: 2620 µM; Km [4]: 10000 µM
OC[C@H]1O[C@@H]2O[C@H]3[C@H](O)[C@@H](O)[C@@H](O[C@H]4[C@H](O)[C@@H](O)[C@@H](O[C@H]5[C@H](O)[C@@H](O)[C@@H](O[C@H]6[C@H](O)[C@@H](O)[C@@H](O[C@H]7[C@H](O)[C@@H](O)[C@@H](O[C@H]8[C@H](O)[C@@H](O)[C@@H](O[C@H]1[C@H](O)[C@H]2O)O[C@@H]8CO)O[C@@H]7CO)O[C@@H]6CO)O[C@@H]5CO)O[C@@H]4CO)O[C@@H]3CO [β-cyclodextrin] |  | 0.110 | 1.00 | Relative hydrolysis rate [2, 6]: 100%; Km [5]: 2650 µM; Km [4]: 2800 µM
OC[C@H]1O[C@@H]2O[C@H]3[C@H](O)[C@@H](O)[C@@H](O[C@H]4[C@H](O)[C@@H](O)[C@@H](O[C@H]5[C@H](O)[C@@H](O)[C@@H](O[C@H]6[C@H](O)[C@@H](O)[C@@H](O[C@H]7[C@H](O)[C@@H](O)[C@@H](O[C@H]8[C@H](O)[C@@H](O)[C@@H](O[C@H]9[C@H](O)[C@@H](O)[C@@H](O[C@H]1[C@H](O)[C@H]2O)O[C@@H]9CO)O[C@@H]8CO)O[C@@H]7CO)O[C@@H]6CO)O[C@@H]5CO)O[C@@H]4CO)O[C@@H]3CO [γ-cyclodextrin] |  | 0.039 | 0.09 | 
Amylopectin |  |  |  | Relative hydrolysis rate [2, 7]: 0.7%
Amylose [Amylose (G18)] |  |  |  | Relative hydrolysis rate [2, 7]: 44%
Amylose [Amylose (G99)] |  |  |  | Relative hydrolysis rate [2, 7]: 3.7%
Dextran |  |  |  | Relative hydrolysis rate [2, 7]: 11%
Pullulan |  |  |  | Relative hydrolysis rate [2, 7]: 1.5%
Starch |  |  |  | Relative hydrolysis rate [2, 7]: 2.9%
